Measurements published in ChEMBL document CHEMBL1201862, “PubChem BioAssay data set” (2004).
Several values for one entry are separate records, joined by “and”; a condition that tells them apart may be missing. Equal values may be shown once.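 Step 1: Grow cells in 96-well plates. Step 2: Expose to compound for 48 hours at 5 concentrations. Step 3: Interpolate endpoints linearly; if unreached, use highest concentration. GI50 marks 50% less growth.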 Activity calls are given as the source filed them. Rule as the data show it: active = GI50 up to about 1.1 µM and inactive = higher.

Experiments:
Assay in all cases: growth of human tumour cells (NCI), 48 h
MCF7 = system: MCF7
HOP-92 = system: HOP-92
HCT-15 = system: HCT-15
SF-539 = system: SF-539
K562 = system: K562
SNB-19 = system: SNB-19
HCT-116 = system: HCT-116
PC-3 = system: PC-3
IGROV-1 = system: IGROV-1
Malme-3M = system: Malme-3M
CCRF-CEM = system: CCRF-CEM
ACHN = system: ACHN
SN12C = system: SN12C
NCI-H522 = system: NCI-H522
UACC-257 = system: UACC-257
SF-295 = system: SF-295
UO-31 = system: UO-31
UACC-62 = system: UACC-62
A498 = system: A498
T47D = system: T47D

SMILES | GI50 (MCF7) | GI50 (HOP-92) | GI50 (HCT-15) | GI50 (SF-539) | GI50 (K562) | GI50 (SNB-19) | GI50 (HCT-116) | GI50 (PC-3) | GI50 (IGROV-1) | GI50 (Malme-3M) | GI50 (CCRF-CEM) | GI50 (ACHN) | GI50 (SN12C) | GI50 (NCI-H522) | GI50 (UACC-257) | GI50 (SF-295) | GI50 (UO-31) | GI50 (UACC-62) | GI50 (A498) | GI50 (T47D)
CC(=O)O[C@H]1C(=O)[C@@]2(C)C(C(OC(=O)c3ccccc3)[C@]3(O)CC(OC(=O)C(O)C(NC(=O)c4cccc(Cl)c4)c4ccccc4)C(C)=C1C3(C)C)[C@]1(OC(C)=O)CO[C@@H]1C[C@@H]2O (stereo not given in full) | 0.344 µM (active) | > 10 µM (inactive) | 2.62 µM | 0.353 µM (active) | 0.562 µM (active) | 2.79 µM (inactive) | 0.16 µM (active) | 1.53 µM (inactive) | 0.624 µM (active) | 2.75 µM (inactive) | 0.262 µM (active) | 1.82 µM (inactive) | 0.628 µM (active) | 0.912 µM (active) | 2.09 µM (inactive) | 1.15 µM (inactive) | – | – | – | –
COc1cccc(O)c1-c1cc(=O)c2c(O)c(OC)c(OC)c(OC)c2o1 [SKULLCAPFLAVONE II] | 27.3 µM (inactive) | 22.1 µM (inactive) | 18.5 µM | 36.8 µM (inactive) | 14.5 µM (inactive) | 29.2 µM (inactive) | 32.1 µM (inactive) | 15.3 µM (inactive) | 24.2 µM (inactive) | 36.4 µM (inactive) | 34.5 µM (inactive) | 38.9 µM (inactive) | 28 µM (inactive) | 22.7 µM (inactive) | 27 µM (inactive) | 21.1 µM (inactive) | 25.2 µM (inactive) | 14.7 µM (inactive) | – | –
N#CC1(C#N)C=CC(=C2OCC3CCCN23)C=C1 (stereo not given) | – | 96.2 µM (inactive) | > 100 µM | > 100 µM (inactive) | > 100 µM (inactive) | > 100 µM (inactive) | > 100 µM (inactive) | – | > 100 µM (inactive) | > 100 µM (inactive) | 77.1 µM (inactive) | > 100 µM (inactive) | > 100 µM (inactive) | > 100 µM (inactive) | > 100 µM (inactive) | > 100 µM (inactive) | > 100 µM (inactive) | > 100 µM (inactive) | > 100 µM (inactive) | –
COc1ccccc1/C=C(/C)[N+](=O)[O-] | – | 2.21 µM (inactive) | 1.96 µM and 2.01 µM | 1.77 µM (inactive) and 2.28 µM (inactive) | – | 4.26 µM (inactive) and 2.33 µM (inactive) | – | 2.79 µM (inactive) and 2.53 µM (inactive) | 2.17 µM (inactive) and 1.6 µM (inactive) | 2.51 µM (inactive) and 1.85 µM (inactive) | – | 2.17 µM (inactive) and 2.44 µM (inactive) | 2.24 µM (inactive) and 1.98 µM (inactive) | 1.39 µM (inactive) and 1.19 µM (inactive) | 1.74 µM (inactive) and 1.77 µM (inactive) | – | 1.69 µM (inactive) and 1.72 µM (inactive) | 1.89 µM (inactive) and 1.58 µM (inactive) | 7.13 µM (inactive) and 5.14 µM (inactive) | 1.44 µM (inactive) and 1.04 µM (active)
O=P1(c2ccccc2)c2ccccc2CCc2ccccc21 | > 100 µM (inactive) | 35.6 µM (inactive) | 68.9 µM | > 100 µM (inactive) | – | > 100 µM (inactive) | 53 µM (inactive) | 50.5 µM (inactive) | > 100 µM (inactive) | – | 47.9 µM (inactive) | – | 81.1 µM (inactive) | 37.1 µM (inactive) | > 100 µM (inactive) | 45.5 µM (inactive) | 53.3 µM (inactive) | 78.7 µM (inactive) | – | –
NCP(=O)(O)OCC(=O)O | – | > 100 µM (inactive) | > 100 µM | > 100 µM (inactive) | > 100 µM (inactive) | > 100 µM (inactive) | > 100 µM (inactive) | – | > 100 µM (inactive) | > 100 µM (inactive) | > 100 µM (inactive) | > 100 µM (inactive) | > 100 µM (inactive) | > 100 µM (inactive) | > 100 µM (inactive) | > 100 µM (inactive) | > 100 µM (inactive) | > 100 µM (inactive) | > 100 µM (inactive) | –
N#Cc1c(N)nc2c(/N=N\c3ccccc3)c(N)nn2c1Nc1ccccc1 | 1.51 µM (inactive) | 14.6 µM (inactive) | 23.6 µM | 21.6 µM (inactive) | 3.4 µM (inactive) | 18.5 µM (inactive) | 9.38 µM (inactive) | 5.69 µM (inactive) | 10.9 µM (inactive) | 21.6 µM (inactive) | 4.37 µM (inactive) | 20.4 µM (inactive) | 7.69 µM (inactive) | 17.8 µM (inactive) | 18.7 µM (inactive) | 16.8 µM (inactive) | > 10 µM (inactive) | – | 21.7 µM (inactive) | –
CS(=O)(=O)O[C@H]1[C@H](O)c2ccccc2[C@@H]1N=[N+]=[N-] | > 100 µM (inactive) | > 100 µM (inactive) | > 100 µM | > 100 µM (inactive) | > 100 µM (inactive) | > 100 µM (inactive) | > 100 µM (inactive) | > 100 µM (inactive) | > 100 µM (inactive) | > 100 µM (inactive) | > 100 µM (inactive) | > 100 µM (inactive) | > 100 µM (inactive) | > 100 µM (inactive) | > 100 µM (inactive) | > 100 µM (inactive) | > 100 µM (inactive) | > 100 µM (inactive) | > 100 µM (inactive) | –
